# Calls of active or inactive are those of the source. The rule behind the calls is not given here.
# Tested on: HEK-293T cytotoxicity, luminescence
# Assay: HEK-293T cell viability reduction – luminescence, B-cell screen hits, cytotoxicity control for BCR NF-kB inhibitor project, dose response (AID 489021)
compound,measurement,value
COc1ccc(/C=C\C(=O)O[C@@H]2C(O)C(O[C@@H]3OC(C)[C@H](O[C@@H]4OCC(O[C@H]5O[C@H](CO)[C@@H](O)C(O)C5O)C(O)C4O)C(O)C3O)[C@H](OC(=O)[C@]34CCC(C)(C)C[C@@H]3C3=CCC5[C@@]6(C)CC(O)C(O[C@@H]7OC(CO)C(O)[C@H](O)[C@H]7O)[C@@](C)(C(=O)O)C6CC[C@@]5(C)[C@]3(CO)CC4)O[C@H]2C)cc1 (stereo partly specified),IC50,60.7 µM (inactive)
